Reference: ChEMBL document CHEMBL1134937, “Indoline and piperazine containing derivatives as a novel class of mixed D(2)/D(4) receptor antagonists. Part 2: asymmetric synthesis and biological evaluation” (Bioorg Med Chem Lett, 2002)
Each block holds one molecule with its values, some of them ahead of it.

Columns and labels:
[1] = target: T1, Adrenergic receptor alpha-1 (Rattus norvegicus, UniProt P15823+P23944+P43140); assay: Binding affinity towards Alpha-1 adrenergic receptor was determined by competitive displacement assays using rat brain homogenate with [3H]prazosin as the competitive ligand; assay type: tissue-based
T1 sequence (P15823 whole entry): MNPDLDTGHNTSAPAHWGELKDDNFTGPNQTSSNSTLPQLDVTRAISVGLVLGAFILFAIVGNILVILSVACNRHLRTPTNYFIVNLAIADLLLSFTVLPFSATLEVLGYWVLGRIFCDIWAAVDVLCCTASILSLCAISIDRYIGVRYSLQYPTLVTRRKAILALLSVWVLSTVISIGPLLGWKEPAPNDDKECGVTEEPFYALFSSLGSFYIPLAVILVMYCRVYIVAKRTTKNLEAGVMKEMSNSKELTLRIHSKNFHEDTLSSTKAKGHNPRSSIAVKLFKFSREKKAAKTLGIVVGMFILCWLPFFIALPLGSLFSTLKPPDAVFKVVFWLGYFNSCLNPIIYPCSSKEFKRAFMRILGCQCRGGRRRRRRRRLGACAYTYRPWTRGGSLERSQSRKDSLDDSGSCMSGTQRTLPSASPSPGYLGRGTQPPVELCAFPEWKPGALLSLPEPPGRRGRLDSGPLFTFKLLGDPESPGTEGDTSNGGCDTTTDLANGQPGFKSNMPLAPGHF
T1 sequence (P23944 whole entry): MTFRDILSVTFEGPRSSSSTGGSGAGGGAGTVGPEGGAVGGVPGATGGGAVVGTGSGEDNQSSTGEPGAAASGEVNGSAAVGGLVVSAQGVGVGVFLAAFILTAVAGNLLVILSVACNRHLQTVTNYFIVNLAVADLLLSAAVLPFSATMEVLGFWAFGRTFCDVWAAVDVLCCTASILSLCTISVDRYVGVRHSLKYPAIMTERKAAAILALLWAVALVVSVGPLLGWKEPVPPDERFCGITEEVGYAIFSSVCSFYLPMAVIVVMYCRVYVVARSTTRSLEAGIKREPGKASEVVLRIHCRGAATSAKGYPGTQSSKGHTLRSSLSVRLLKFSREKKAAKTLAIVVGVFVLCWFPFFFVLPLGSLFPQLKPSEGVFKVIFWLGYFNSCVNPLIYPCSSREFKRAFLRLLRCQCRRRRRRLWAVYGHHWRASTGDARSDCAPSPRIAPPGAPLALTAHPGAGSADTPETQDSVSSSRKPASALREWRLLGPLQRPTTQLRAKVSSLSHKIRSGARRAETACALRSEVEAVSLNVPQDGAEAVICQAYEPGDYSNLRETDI
T1 sequence (P43140 whole entry): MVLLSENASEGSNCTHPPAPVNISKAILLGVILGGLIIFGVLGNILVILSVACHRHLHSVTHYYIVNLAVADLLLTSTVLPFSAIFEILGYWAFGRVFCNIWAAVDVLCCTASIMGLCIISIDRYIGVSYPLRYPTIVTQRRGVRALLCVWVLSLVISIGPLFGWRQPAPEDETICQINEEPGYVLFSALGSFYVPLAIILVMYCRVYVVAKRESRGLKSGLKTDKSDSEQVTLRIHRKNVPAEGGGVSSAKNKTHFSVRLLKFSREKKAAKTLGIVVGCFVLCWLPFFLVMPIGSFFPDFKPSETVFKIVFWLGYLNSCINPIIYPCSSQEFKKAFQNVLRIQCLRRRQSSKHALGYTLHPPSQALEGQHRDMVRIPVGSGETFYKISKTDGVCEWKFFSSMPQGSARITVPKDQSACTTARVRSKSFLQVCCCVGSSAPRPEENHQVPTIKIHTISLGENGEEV

D(4) dopamine receptor = target: T2, D(4) dopamine receptor (Homo sapiens, UniProt P21917)
T2 sequence (P21917 whole entry): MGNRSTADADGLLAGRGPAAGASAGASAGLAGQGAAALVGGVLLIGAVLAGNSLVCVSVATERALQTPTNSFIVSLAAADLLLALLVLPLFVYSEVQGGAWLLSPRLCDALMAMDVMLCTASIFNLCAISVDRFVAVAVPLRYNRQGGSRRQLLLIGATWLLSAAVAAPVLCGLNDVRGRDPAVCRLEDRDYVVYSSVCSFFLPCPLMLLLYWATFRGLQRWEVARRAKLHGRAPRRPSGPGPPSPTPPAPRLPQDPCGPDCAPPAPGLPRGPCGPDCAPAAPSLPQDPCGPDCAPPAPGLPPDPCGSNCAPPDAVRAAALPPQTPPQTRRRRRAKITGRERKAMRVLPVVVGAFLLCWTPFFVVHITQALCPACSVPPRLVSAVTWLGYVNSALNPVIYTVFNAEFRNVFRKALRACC
Description: Binding affinity towards Dopamine type 4 receptor was determined by competitive displacement assays using [3H]-YM 09151 as the competitive ligand

Rattus norvegicus [2] = assay: Minimum effective dose required for significant dose dependent reduction of amphetamine-induced locomotor activity in male Sprague-Dawley rats on subcutaneous administration (30 min prior to receiving amphetamine 0.5 mg/kg); assay type: functional; details: sc, read-out: MED
Rattus norvegicus [3] = species on record: Rattus norvegicus; assay: Minimum effective dose required in the catalepsy experiment in rats; showed no significant effect at this dose; assay type: functional; details: read-out: MED
Rattus norvegicus [4] = species on record: Rattus norvegicus; assay: Minimum effective dose required in the catalepsy experiment in rats; assay type: functional; details: read-out: MED

- Ki [1]: > 10000 nM
- Ki (D(4) dopamine receptor): 6 nM
Compound: C[C@@H]1Cc2ccccc2N1C(=O)CN1CCN(Cc2cc(F)c(Cl)cc2F)CC1

- Ki [1]: 100 nM
- Ki (D(4) dopamine receptor): 8 nM
Compound: COC(=O)[C@@H]1Cc2ccccc2N1C(=O)CN1CCN(Cc2ccc(C)cc2)CC1

- Ki [1]: 453 nM
- Ki (D(4) dopamine receptor): 1760 nM
Compound: O=C(O)[C@@H]1Cc2ccccc2N1C(=O)CN1CCN(Cc2ccc(Cl)cc2)CC1

- Ki [1]: > 1000 nM
- Ki (D(4) dopamine receptor): 5 nM
Compound: COC(=O)[C@@H]1Cc2ccccc2N1C(=O)CN1CCN(Cc2ccc(Cl)cc2)CC1

- Ki [1]: 807 nM
- Ki (D(4) dopamine receptor): 2 nM
Compound: Cc1ccc(CN2CCN(CC(=O)N3c4ccccc4C[C@H]3C)CC2)cc1F

- Ki [1]: 1330 nM
- Ki (D(4) dopamine receptor): 3 nM
Compound: CC[C@@H]1Cc2ccccc2N1C(=O)CN1CCN(Cc2ccc(C)cc2)CC1

- Ki [1]: 2180 nM
Compound: C=C[C@@H]1Cc2ccccc2N1C(=O)CN1CCN(Cc2ccc(Cl)cc2)CC1

Continued, molecule first:

Compound: COc1ccc(Cl)cc1CN1CCN(CC(=O)N2c3ccccc3C[C@H]2C)CC1
- Ki [1]: 980 nM
- Ki (D(4) dopamine receptor): 5 nM

Compound: C[C@@H]1Cc2ccccc2N1C(=O)CN1CCN(Cc2cccc(F)c2)CC1
- Ki (D(4) dopamine receptor): 6 nM

Compound: COc1cc(Cl)ccc1CN1CCN(CC(=O)N2c3ccccc3C[C@H]2C)CC1
- Ki [1]: 1060 nM
- Ki (D(4) dopamine receptor): 3 nM
- minimal effective dose (Rattus norvegicus [2]): > 4 mg/kg

Compound: O=C(NCc1ccccc1)[C@@H]1Cc2ccccc2N1C(=O)CN1CCN(Cc2ccc(Cl)cc2)CC1
- Ki (D(4) dopamine receptor): > 1000 nM

Compound: CC(C)c1ccc(Cl)cc1CN1CCN(CC(=O)N2c3ccccc3C[C@H]2C)CC1
- Ki (D(4) dopamine receptor): 10 nM

Compound: C[C@@H]1Cc2ccccc2N1C(=O)CN1CCN(Cc2ccc(Cl)cc2)CC1
- minimal effective dose (Rattus norvegicus [2]): > 8 mg/kg

Compound: C[C@@H]1Cc2ccccc2N1C(=O)CN1CCN(Cc2ccccc2F)CC1
- Ki [1]: > 10000 nM
- Ki (D(4) dopamine receptor): 27 nM

Compound: COc1ccc(OC)c(CN2CCN(CC(=O)N3c4ccccc4C[C@H]3C)CC2)c1
- Ki [1]: 1660 nM
- Ki (D(4) dopamine receptor): 29 nM

Compound: C[C@@H]1Cc2ccccc2N1C(=O)CN1CCN(Cc2ccc(F)c(F)c2Cl)CC1
- Ki [1]: > 1000 nM
- Ki (D(4) dopamine receptor): 12 nM

Compound: Cc1ccc(CN2CCN(CC(=O)N3c4ccccc4C[C@H]3C)CC2)cc1
- minimal effective dose (Rattus norvegicus [2]): > 4 mg/kg

Compound: C[C@@H]1Cc2ccccc2N1C(=O)CN1CCN(Cc2ccc3c(c2)OCO3)CC1
- Ki [1]: 1130 nM
- Ki (D(4) dopamine receptor): 3 nM

Compound: CCOc1ccc(Cl)cc1CN1CCN(CC(=O)N2c3ccccc3C[C@H]2C)CC1
- Ki [1]: 1090 nM
- Ki (D(4) dopamine receptor): 11 nM

Compound: CN1CCN(C2=Nc3cc(Cl)ccc3Nc3ccccc32)CC1 [CLOZAPINE]
- minimal effective dose (Rattus norvegicus [2]): 1 mg/kg
- minimal effective dose (Rattus norvegicus [3]): > 40 mg/kg

Compound: O=C(CCCN1CCC(O)(c2ccc(Cl)cc2)CC1)c1ccc(F)cc1 [HALOPERIDOL]
- minimal effective dose (Rattus norvegicus [2]): 0.06 mg/kg
- minimal effective dose (Rattus norvegicus [4]): 0.5 mg/kg
